Assay results reported in patent publication US8093209B2, “Methods of suppressing microglial activation and systemic inflammatory responses” (Cognosci, Incorporated, priority 2002, dated 2012).

Assays:
[1] = tested on: thioglycollate-elicited peritoneal macrophages; test: IP3 formation in myo-[2-3H]inositol-labeled macrophages (Example 10); type: cell-based, mouse; settings: pertussis toxin pretreatment
Method: (§1) Macrophage Harvesting. All experiments involving animals were first approved by the Duke Institutional Animal Care and Use Committee. Pathogen-free female C57BL/6 mice and ApoE deficient mice previously backcrossed 10 times to the C57BL/6 strain were obtained from the Jackson Laboratory (Bar Harbor, Me.). Thioglycollate-elicited peritoneal macrophages were harvested by peritoneal lavage using 10 ml of ice-cold Hanks' balanced salt solution containing 10 mM HEPES and 3.5 mM NaHCO3 (HHBSS), pH 7.4. The macrophages were pelleted by centrifugation at 4° C. at ˜800×g for 10 min and resuspended in RPMI 1640 media supplemented with 25 mM HEPES, 12.5 U/ml penicillin, 6.5 mg/ml streptomycin, and 5% fetal bovine serum. Cell viability was determined by the trypan blue exclusion method and was consistently greater then 95%.
Measurement of IP3 in apoE treated macrophage and effect of pertussis toxin. The formation of IP3 in myo-[2-^3H]inositol-labeled macrophages under various experimental conditions was quantified in accordance with known techniques. Macrophage were plated in 6 well plates (4×10^6 cells/well) and allowed to adhere at 37° C. for 2 h in a humidified 5% CO2 incubator. Medium was aspirated from the monolayers and RPMI 1640 medium containing 0.25% BSA and myo-[2-^3H]inositol (specific activity 10-20 Ci/mmol) was added to each well. […] Radioactivity was determined by placing aliquots in a liquid scintillation counter to determine radioactivity. […] The effect on IP3 formation was measured as described above.

[2] = tested on: thioglycollate-elicited peritoneal macrophages; test: [Ca2+]i in Fura-2/AM treated single macrophages, digital imaging microscopy (Example 10); type: cell-based, mouse; settings: 1000-fold molar excess RAP, 10 mM NiCl2, or 1 μg/ml pertussis toxin 12 h
Method: as §1, with “serum.” for “serum. Cell viability was determined by the trypan blue exclusion method and was consistently greater then 95%.”
Measurement of [Ca^2+]i in apoE and peptide treated macrophage. Changes in [Ca^2+]i levels in Fura-2/AM treated single cells were quantified using digital imaging microscopy in accordance with known techniques. Macrophages were plated on glass coverslips sitting in 35 mm Petri dishes at a density of 1.5×10^5 cells/cm^2, and allowed to adhere for 2 h in a humidified 5% CO2 incubator at 37° C. The non-adherent cells were aspirated and the monolayers were washed twice with HHBSS. 4 μM Fura-2/AM was incubated with the cells for thirty min in the dark at room temperature and [Ca^2+]i was subsequently measured using a digital imaging microscope in accordance with known techniques. […] To determine if signaling resulted from ligation of the ligand to LRP, cells were preincubated with a 1000-fold molar excess of RAP or 10 mM NiCl2, both of which inhibit ligand binding to LRP, for 5 min prior to stimulation with apoE or peptide. In experiments in which the involvement of a G protein was assessed, monolayers were incubated with 1 μg/ml pertussis toxin for 12 h at 37° C. and Ca^2+ measurements were made as stated above.

[3] = tested on: primary rat neuronal/glial cultures exposed to NMDA; test: NMDA-induced LDH release in primary neuronal-glial cultures; type: cell-based; settings: 6 μM peptide, 100 μM NMDA
Method: (§2) Primary neuronal-glial cultures were prepared from fetal Sprague-Dawley rat brains at 18 days of gestation as previously described (Pearlstein et al., 1998). Brains were harvested from 10-15 pups and dissected to separate cortex from meninges and subcortical structures using anatomical landmarks. Cortices were pooled and minced into 2 mm^3 pieces in a buffered salt solution supplemented with 20 mM HEPES buffer, pH 7.4, containing 0.25% trypsin. The tissue was incubated for 20 minutes at 37° C. in a 5% CO2/95% room air atmosphere, and washed twice with ice-cold, glutamine-free minimum essential medium (MEM; Life Technologies) containing 15 mM glucose, 5% fetal bovine serum (GIBCO), 5% horse serum (GIBCO), and 1% DNase-I (Sigma Chemical Co., St. Louis, Mo., USA). Tissue pieces were dissociated by trituration through a fire-polished 9-inch Pasteur pipette (I.D.=0.7 mm). The resultant suspension was centrifuged at 50×g for 10 min, the supernatant discarded, and the pellet resuspended in growth medium (MEM supplemented with 15 mM glucose, 5% fetal bovine serum, and 5% horse serum). The dissociated cells were plated to achieve a confluent monolayer using 4×10^5 cells per well in poly-D-lysine coated, 24-well culture plates (Falcon 3047; Becton Dickinson Co., Lincoln Park, N.J., USA). Cultures were maintained undisturbed at 37° C. in a humidified 5% CO2/95% room air atmosphere for 13-16 days prior to use.
Mature cultures (13-16 days in vitro) were washed with Mg^2+-free buffered salt solution (BSS) containing 20 mM HEPES buffer (pH7.4) and 1.8 mM CaCl2, prior to the addition of NMDA. Following NMDA exposure, cultures were maintained for 30 minutes at 37° C. in a 5% CO2/95% air atmosphere. The medium containing NMDA was then removed and replaced with MEM supplemented with 20 mM glucose. The cultures were returned to the incubator for 24 h. In all experiments, cellular damage was assessed at 24 h after exposure to NMDA by measurement of the activity of lactate dehydrogenase (LDH) released into the medium as described below. The non-competitive NMDA receptor antagonist, MK-801 (Tocris Cookson Ins., St. Louis, Mo.) at a concentration of 10 μM was used as a positive control. Preliminary dose-response studies were performed to determine the concentration of NMDA (100 μM) required to effect a near-maximal LDH release (ED90) as used in the present study.
The effect of human recombinant apoE (Panverra, Madison, Wis.) on 100 μM NMDA-induced LDH release was assessed and the dose-response curve was obtained (apoE: 0.1-10 μM final concentration). ApoE3, the most common human isoform, was added to the cultures 30 minutes prior to and removed following NMDA exposure. The effect of apoE peptide (133-149) on NMDA (100 μM or 300 μM)-induced LDH release was next assessed and the dose-response curve was obtained in a separate set of sister cultures that were simultaneously treated under one of the following conditions: (1) various doses of peptide (0.3 μM, 1 μM, 3 μM, 6 μM, 10 μM final concentration) were added to the culture immediately prior to and removed at the end of NMDA exposure; (2) no peptide, NMDA exposure; (3) no peptide, no NMDA exposure; (4) no peptide, NMDA exposure with 10 μM MK-801 for 30 minutes. The effect of a scrambled control peptide on NMDA-induced LDH release was similarly assessed.
The effect of time of administration of apoE peptide (133-149) on NMDA-induced LDH release was assessed in a separate set of sister cultures that were simultaneously treated under one of following conditions: (1) peptide was added to the culture medium 24 h prior to and removed immediately before exposure to NMDA; (2) peptide was added immediately prior to and removed at the end of the NMDA exposure; (3) peptide was added immediately following the 30 minutes NMDA exposure; (4) no peptide, NMDA exposure; (5) no peptide, no NMDA exposure. […]

[4] = tested on: enriched microglia primary cultures from apoE deficient mouse pups; test: LPS-stimulated nitric oxide (nitrite) secretion by enriched microglia primary cultures; type: cell-based; settings: peptide dose of 2 mM, LPS 100 ng/ml
Method: Culture preparation and characterization: Mixed glial cell cultures were prepared from: (a) wildtype (C57B16; Jackson Laboratories) mouse pups; (b) ApoE deficient mutant mouse pups (ApoE-deficient mice), and (c) transgenic mouse pups expressing human ApoE3 but not murine ApoE (ApoE3 mice). See Xu et al., Neurobiol. Dis. 3:229 (1996) regarding the creation and characterization of the transgenic mice. Mixed glial cell cultures were prepared as has been described. See McMillian et al., Neurochem. 58:1308 (1992); Laskowitz et al., J. Neuroimmunol. 76:70 (1997). Briefly, brains were removed from 2-4 day old pups, cleaned of membranes and blood vessels, mechanically dispersed in Ca^+2-free media, and collected by centrifugation. Cells were then plated in DMEM/F12 (containing 10% fetal calf serum, 1% penicillin/streptomycin, Gibco #15070), one brain per 25 cm flask. […]
Nitrite Quantification The production of NO was assessed by measuring the accumulation of nitrite, which was quantified using a calorimetric reaction with Griess reagent (0.1% N-1-naphthylethylenediamine dihydrochloride, 1% sulfanilamide, and 2.5% H3PO4). Absorbance was measured at 570 nm by spectrophotometry. […]
Enriched microglia primary cultures were prepared from the brains of apoE deficient mouse pups as described in Example 1, above. […] Nitric oxide production was assessed as described in Example 1. […]

[5] = tested on: primary rat neuronal/glial cultures exposed to NMDA; test: NMDA-induced 45Ca uptake by primary neuronal-glial cultures; type: cell-based; settings: 10 μM MK-801 pretreatment, 100 μM NMDA
Method: as §2
Cellular calcium uptake from the extracellular space was assessed using ^45CaCl2 (American Radiolabeled Chemicals, St. Louis, Mo.). After washing the cultures with Mg^2+-free BSS containing 20 mM HEPES buffer, 6 μM peptide or 10 μM MK-801 was added to each well prior to and removed at the end of 100 μM NMDA exposure. ^45Ca (0.28 μCi/ml, 0.9 μCi/well) was added to each well immediately prior to NMDA exposure. The cultures were returned to the incubator and maintained at 37° C. Twenty minutes later, the exposure medium was removed and each well was washed 3 times with ice-cold Mg^2+-free BSS containing 20 mM HEPES buffer. The cells were subsequently lysed by addition of 0.2% sodium dodecyl sulfate (SDS). An aliquot from each well was added to a liquid scintillation vial containing 10 ml Cytoscint™ (ICN, Biochemical Research Product, CA) and radioactivity was determined by scintillation counting and normalized to cell count.

[6] = biological target: LDL receptor (Homo sapiens, UniProt P01130); settings: lipid-free peptide; cited from earlier work
Chain of LDL receptor (P01130 22-860, species assumed): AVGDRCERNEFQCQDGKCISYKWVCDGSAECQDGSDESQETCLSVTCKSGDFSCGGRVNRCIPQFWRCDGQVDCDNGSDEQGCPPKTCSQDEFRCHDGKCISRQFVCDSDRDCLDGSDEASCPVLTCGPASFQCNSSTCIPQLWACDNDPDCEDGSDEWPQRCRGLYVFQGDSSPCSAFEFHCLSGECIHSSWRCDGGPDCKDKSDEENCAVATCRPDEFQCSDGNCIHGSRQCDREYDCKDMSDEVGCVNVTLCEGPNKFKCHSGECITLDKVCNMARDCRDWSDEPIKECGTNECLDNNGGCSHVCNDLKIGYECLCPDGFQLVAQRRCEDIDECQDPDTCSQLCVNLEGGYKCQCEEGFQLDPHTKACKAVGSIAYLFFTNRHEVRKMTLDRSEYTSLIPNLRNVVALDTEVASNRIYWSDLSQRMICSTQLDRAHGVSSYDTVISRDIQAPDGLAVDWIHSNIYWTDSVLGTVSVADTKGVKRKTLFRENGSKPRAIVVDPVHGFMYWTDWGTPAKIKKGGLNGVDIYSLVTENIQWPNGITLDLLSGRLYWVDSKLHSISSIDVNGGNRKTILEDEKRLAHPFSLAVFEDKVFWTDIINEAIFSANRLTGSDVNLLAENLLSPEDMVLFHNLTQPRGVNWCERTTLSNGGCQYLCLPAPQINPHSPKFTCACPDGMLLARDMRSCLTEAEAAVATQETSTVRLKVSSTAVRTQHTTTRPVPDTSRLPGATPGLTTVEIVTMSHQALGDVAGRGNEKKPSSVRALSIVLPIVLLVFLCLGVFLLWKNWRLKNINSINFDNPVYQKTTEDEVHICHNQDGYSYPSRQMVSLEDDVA

Compound: pertussis toxin [reference compound]
- effect of pretreatment on apoE-induced IP3 increase [1]: completely abolished this increase in IP3
- effect of preincubation on apoE-induced [Ca2+]i increase [2]: markedly attenuated the ApoE-dependent Ca^2+ response

Compound: ApoE (136-149): 14 amino acid peptide, three amino-terminal residues removed from ApoE (133-149) (Ac-RLASHLRKLRKRLL-NH2; listed as Homo sapiens)
- protection against NMDA-induced cell damage, truncated peptides [3]: modest protection against NMDA toxicity

Compound: LRKLRKRLL (fragment of ApoE containing LDL receptor binding site) [SEQ ID NO:2, 9-mer monomer, ApoE positions 141-149, used as control]
- nitric oxide secretion by activated microglia [4]: did not result in any apparent decrease in nitric oxide secretion

Compound: ApoE (139-149): 11-residue peptide, six amino-terminal residues removed from ApoE (133-149) (Ac-SHLRKLRKRLL-NH2; listed as Homo sapiens)
- protection against NMDA-induced cell damage, truncated peptides [3]: no detectable bioactivity

Compound: C[C@]12N[C@H](Cc3ccccc31)c1ccccc12 [MK-801, reference compound]
- NMDA-induced calcium influx [5]: completely reversed

Compound: 141-155 monomer: lipid-free synthetic peptide comprising residues 141-155 of ApoE (Dyer et al.) (LRKLRKRLLRDADDL; UniProt P02649 159-173, looked up, fragment)
- LDL receptor binding activity [6]: No binding activity was observed

Compound: [Cl][Ni][Cl] [Ni^+2, NiCl2, reference compound]
- effect of preincubation on apoE-induced [Ca2+]i increase [2]: markedly attenuated the [Ca^2+]i increases

Compound: 141-155 dimer: dimeric peptide of ApoE residues 141-155 (Dyer et al.)
- LDL receptor binding [6]: ~1 % of LDL activity
